# Measurements from publication PMC10432564, “Pharmacological perturbation of the phase-separating protein SMNDC1” (Nature Communications, 2023).
# Tests used:
# [1] = molecular target: T1, APEX2-SMNDC1^FL (Homo sapiens, UniProt O75940); test: APEX2-SMNDC1^FL proximity labeling, biotin enrichment and mass spectrometry; type: cell-based, mouse; settings: compound-treated over DMSO; adjusted p-value<0.05, |log2FC|≥2
# T1 construct: In addition to full-length SMNDC1 (APEX2-SMNDC1^FL); expressed in transfected cells
# T1 sequence (O75940 1-238): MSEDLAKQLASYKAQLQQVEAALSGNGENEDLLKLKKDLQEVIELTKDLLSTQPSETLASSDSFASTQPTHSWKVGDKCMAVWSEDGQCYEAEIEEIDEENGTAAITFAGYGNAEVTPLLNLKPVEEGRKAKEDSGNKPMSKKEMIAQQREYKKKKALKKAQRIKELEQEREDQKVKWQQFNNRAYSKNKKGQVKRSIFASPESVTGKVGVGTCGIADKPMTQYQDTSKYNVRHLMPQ
# Description: Proximity labeling with APEX2 was done following the described protocol for imaging and proteomic analysis. Cell lines with a stable expression of APEX2-fusion proteins were generated using lentiviral transduction of plasmids generated with Gateway cloning of the respective fusion protein into pLEX305. pLEX_305 was a gift from David Root (Addgene plasmid # 41390; http://n2t.net/addgene:41390; RRID:Addgene_41390). The APEX2 sequence was amplified from APEX2-csGBP which was a gift from Rob Parton (Addgene plasmid # 108874; http://n2t.net/addgene:108874; RRID:Addgene_108874). Briefly, cells were incubated with 0.5 mM biotin-phenol for 30 min, after which 1 mM H2O2 was added for exactly 1 min. Afterwards the labeling reaction was quenched by 3 quick washes with Quenching solution (10 mM sodium ascorbate, 10 mM sodium azide, 5 mM Trolox in PBS). […]
# After proximity labeling, cells (~10 Mio. cells, 15 cm dish) were harvested, washed 2x in PBS, snap frozen and stored at −80 °C. […] After quantification of protein amounts by Pierce™ 660 nm Protein Assay, samples were normalized to 500 µg total protein input in a final volume of 300 µl lysis buffer. […]
# Following data acquisition, acquired raw data files were processed using the Proteome Discoverer v.2.4.1.15 platform, choosing a TMT16plex quantification method. […]
# [2] = system: SMNDC1-GFP intron 2-3, SRRM2-RFP intron 9-10, αTC1-clone; test: Fluorescence recovery after photobleaching (FRAP); type: cell-based, mouse; settings: 50 µM, 15-45 min
# Experimental: For FRAP experiments, cells harboring intron-tags in SMNDC1 and SRRM2 were seeded 24 h before imaging on a Zeiss LSM 980 microscope. 15 min before imaging, medium was changed to medium without phenol red containing DRAQ5^TM 1:1000 to reduce autofluorescence and to mark nuclei. If cells were treated with compounds, these were added in the same step. After identifying a suitable cell, bleach and reference regions were defined. After taking one reference image, the bleach region was bleached 15 times for 5 milliseconds with 100% laser power at 488 nm for GFP and with 20% laser power at 546 nm for RFP. After bleaching, a new image was taken approximately every 3 s until 150 s after bleaching. Fluorescence intensities were quantified in the bleach and reference regions for every image and normalized to the intensity before bleaching.
structure (smiles),measurement,setting,value
CN(C)S(=O)(=O)c1ccc(C(=O)Nc2nc(-c3ccccn3)cs2)cc1 [compound 1],proteins significantly depleted,[1],126 proteins
same,proteins significantly enriched,[1],6 proteins
same,recovery after photobleaching of SMNDC1 and SRRM2,[2],lower recovery after photobleaching
